From EPA's ToxValDB 9.5 (doi:10.2903/j.efsa.2006.87r)
Converted amounts (≈) assume the structure as drawn.

Columns and labels:
[1] = tested on: Oncorhynchus mykiss; details: chronic/long-term; duration: 28 days; growth
[2] = tested on: Bibionidae; details: chronic/long-term; duration: 28 days
[3] = tested on: Lepomis macrochirus; details: acute; duration: 96 hours; mortality
[4] = tested on: Daphnia magna; details: chronic/long-term; duration: 21 days; reproduction
[5] = tested on: Bird; details: for LD50: acute, oral, unspecified, mortality
[6] = tested on: Oryctolagus sp.; details: reproduction developmental; mortality
[7] = tested on: Apis mellifera; details: acute; duration: 48 hours; oral; unspecified; mortality
[8] = tested on: Aphidius rhopalosiphi; details: not reported
[9] = tested on: Canidae; details: chronic; duration: 1 years; oral; Dog Other
[10] = tested on: Tagia sp.
[11] = tested on: Rattus norvegicus

COC(=O)[C@@H](C)Oc1ccc(Oc2ncc(C(F)(F)F)cc2Cl)cc1 [Haloxyfop-P-methyl]
NOEC [1]: 0.0052 mg/L
NOEC [2]: 2.5 mg/L
LC50 [3]: 0.0884 µg/mL (≈ 0.235 µM)
NOEC [4]: 0.509 mg/L
LD50 [5]: 1160 mg/kg-day

C[C@@H](Oc1ccc(Oc2ncc(C(F)(F)F)cc2Cl)cc1)C(=O)O [Haloxyfop-P]
NOAEL [6]: 7.5 mg/kg-day
LD50 [7]: > 100 µg/piece
LEL ([8]; mortality): 108 g/ha
LEL ([8]; reproduction): 5.7 g/ha
NOAEL [9]: 0.5 mg/kg-day
LC50 ([10]; acute, duration: 14 days, mortality): 830 mg/kg
NOEC ([10]; chronic/long-term, reproduction): 810 g/ha
LD50 ([11]; acute, oral, mortality): ≥ 300 mg/kg
NOAEL ([11]; chronic, duration: 2 years, organ weight): 0.065 mg/kg-day
NOAEL ([11]; reproduction developmental, body weight): 0.065 mg/kg-day
LD50 [5]: 414 mg/kg
NOEC ([5]; reproductive): 17.1 mg/kg-day
LC50 (acute, oral, diet, mortality): > 1110 mg/kg-day
NOAEL (chronic/long-term): 1 mg/kg-day
